Experiments:
S. aureus A798 = test: Bacterial growth minimal inhibitory concentrations (microdilution, cation-adjusted Mueller-Hinton Broth); format: cell-based; details: for MIC: Staphylococcus aureus
Description: Minimal inhibitory concentrations (MICs; mg/l) were determined in cation-adjusted Mueller-Hinton Broth by a microdilution method following the description given in “Methods for Dilution Antimicrobial Susceptibility Tests for Bacteria that Grow Aerobically”, Approved standard, 7th ed., Clinical and Laboratory Standards Institute (CLSI) Document M7-A7, Wayne, Pa., USA, 2006.

hERG K+ channel = hERG K+ channel (Homo sapiens, UniProt Q12809); test: In vitro blocking of hERG K+ channels (QPatch automated patch-clamp, CHO-K1 cells); format: cell-based; details: pH 7.4, at 10 μM, CHOhERG cells, 4 minutes of stimulation, average block on two cells
Description: hERG K^+ channels have been cloned from human heart and recombinant channels are stably expressed in CHO-K1 cells (CHOhERG). These cells have been purchased from bSys GmbH (CH-4052 Basel, Switzerland) and are grown in 150 mL culture flasks at 37° C. in 5% CO2. When the cells are ˜100% confluent, they are detached with 0.25% trypsin-EDTA solution and placed in the cell preparation unit of a QPatch automated patch-clamp robot (Sophion Bioscience A/S, 2750 Ballerup, Denmark). Currents through the hERG K^+ channels (IKhERG) are elicited using the following buffer solutions and voltage protocol: • extracellular solution (in mM): [NaCl]=150; [KCl]=4; [CaCl2]=1.2; [MgCl2]=1; [HEPES]=10; pH adjusted to 7.4 with NaOH; • intracellular solution (in mM): [KCl]=140; [NaCl]=10; [MgCl2]=1; [HEPES]=10; [EGTA]=5; [Mg-ATP]=5; […] After the cells have stabilized for a few minutes and the currents are steady, the amplitude of IKhERG is recorded under control conditions. Thereafter, the QPatch robot applies the test compound to the cell at the test concentration and, after 4 minutes of stimulation, the amplitude of IKhERG is recorded under test conditions. The ratio of the two amplitudes is used to define a fractional block and the average block on two cells is used to provide the effect of a given concentration (e.g. 10 μM). If, for a given test compound, a sufficient number of concentrations were tested, an apparent IC50 for inhibition of IKhERG is calculated.

[1] = comparison table of compounds of formula ICOMP

Chain of hERG K+ channel (Q12809 whole entry): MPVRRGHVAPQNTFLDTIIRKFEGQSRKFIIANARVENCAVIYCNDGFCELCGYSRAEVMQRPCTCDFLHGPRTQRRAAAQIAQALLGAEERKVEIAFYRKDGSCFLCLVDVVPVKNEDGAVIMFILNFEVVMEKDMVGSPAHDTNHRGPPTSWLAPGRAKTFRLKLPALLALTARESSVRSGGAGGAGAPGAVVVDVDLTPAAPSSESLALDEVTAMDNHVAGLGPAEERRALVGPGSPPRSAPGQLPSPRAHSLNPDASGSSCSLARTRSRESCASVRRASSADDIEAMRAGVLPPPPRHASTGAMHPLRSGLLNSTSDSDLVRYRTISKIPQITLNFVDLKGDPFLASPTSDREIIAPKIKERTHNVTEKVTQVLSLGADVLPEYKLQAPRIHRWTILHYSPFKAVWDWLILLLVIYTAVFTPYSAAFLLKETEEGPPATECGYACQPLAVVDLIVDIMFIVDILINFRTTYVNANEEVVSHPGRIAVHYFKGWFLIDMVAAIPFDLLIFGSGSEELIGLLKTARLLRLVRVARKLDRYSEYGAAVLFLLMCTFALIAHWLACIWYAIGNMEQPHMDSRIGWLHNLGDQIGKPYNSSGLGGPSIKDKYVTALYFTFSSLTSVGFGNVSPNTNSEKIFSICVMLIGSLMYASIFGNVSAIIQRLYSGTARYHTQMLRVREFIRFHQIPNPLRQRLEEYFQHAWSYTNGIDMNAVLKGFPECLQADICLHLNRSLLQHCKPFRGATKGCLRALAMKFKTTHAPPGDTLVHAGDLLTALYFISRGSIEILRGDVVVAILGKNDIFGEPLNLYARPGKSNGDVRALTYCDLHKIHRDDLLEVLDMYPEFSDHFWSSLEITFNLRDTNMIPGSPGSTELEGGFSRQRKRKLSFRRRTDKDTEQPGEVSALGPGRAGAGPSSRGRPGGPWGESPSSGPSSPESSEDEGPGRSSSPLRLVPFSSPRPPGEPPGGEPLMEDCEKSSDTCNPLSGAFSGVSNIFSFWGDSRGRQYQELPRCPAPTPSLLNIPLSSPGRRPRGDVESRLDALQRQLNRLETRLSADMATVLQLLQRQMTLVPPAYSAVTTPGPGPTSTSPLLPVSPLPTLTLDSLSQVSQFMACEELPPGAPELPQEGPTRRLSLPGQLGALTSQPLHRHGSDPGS

Compound	MIC (S. aureus A798; microdilution) [µg/mL]	further results
COc1ccc2nccc(C[C@H](O)[C@@H]3CC[C@@H](NCc4cc5c(cn4)OCCO5)CO3)c2n1 [Example 1, (1S)-1-{(2S,5R)-5-[(2,3-dihydro-[1,4]dioxino[2,3-c]pyridin-7-ylmethyl)-amino]tetrahydro-pyran-2-yl}-2-(6-methoxy-[1,5]naphthyridin-4-yl)-ethanol]	≤ 0.031	MIC for S. aureus A798 (S. aureus A798; [1]): ≦0.031 mg/l; inhibition at 4 min, 10 µM (hERG K+ channel): 26%
COc1ccc2ncc(F)c(C[C@H](O)[C@@H]3CC[C@@H](NCc4cc5c(cn4)OCCO5)CO3)c2n1 [Example 3, (1S)-1-{(2S,5R)-5-[(2,3-dihydro-[1,4]dioxino[2,3-c]pyridin-7-ylmethyl)-amino]-tetrahydro-pyran-2-yl}-2-(3-fluoro-6-methoxy-[1,5]naphthyridin-4-yl)-ethanol]	≤ 0.031	MIC for S. aureus A798 (S. aureus A798; [1]): ≦0.031 mg/l; inhibition at 4 min, 10 µM (hERG K+ channel): 29%
COc1ccc2ncc(F)c(C[C@H](O)[C@@H]3CC[C@@H](NCc4cc5c(nn4)OCCO5)CO3)c2n1 [Example 4, (1S)-1-{(2S,5R)-5-[(6,7-dihydro-[1,4]dioxino[2,3-c]pyridazin-3-ylmethyl)-amino]-tetrahydro-pyran-2-yl}-2-(3-fluoro-6-methoxy-[1,5]naphthyridin-4-yl)-ethanol]	≤ 0.031	MIC for S. aureus A798 (S. aureus A798; [1]): ≦0.031 mg/l; inhibition at 4 min, 10 µM (hERG K+ channel): 5%
COc1cnc2ccc(F)c(C[C@H](O)[C@@H]3CC[C@@H](NCc4cc5c(cn4)OCCS5)CO3)c2n1 [Example 14, (1S)-1-{(2S,5R)-5-[(2,3-dihydro-4-oxa-1-thia-6-aza-naphthalen-7-ylmethyl)-amino]-tetrahydro-pyran-2-yl}-2-(6-fluoro-3-methoxy-quinoxalin-5-yl)-ethanol]	≤ 0.031	
COc1cnc2ccc(F)c(C[C@H](O)[C@@H]3CC[C@@H](NCc4cc5c(nn4)OCCS5)CO3)c2n1 [Example 15, (1S)-1-{(2S,5R)-5-[(6,7-dihydro-8-oxa-5-thia-1,2-diaza-naphthalen-3-ylmethyl)-amino]-tetrahydro-pyran-2-yl}-2-(6-fluoro-3-methoxy-quinoxalin-5-yl)-ethanol]	≤ 0.031	
[2H]C(N[C@@H]1CC[C@@H]([C@@H](O)Cc2c(F)cnc3ccc(OC)nc23)OC1)c1cc2c(cn1)OCCO2 (stereo partly drawn) [Example 16, (1S)-1-((2S,5R)-5-(((2,3-dihydro-[1,4]dioxino[2,3-c]pyridin-7-yl)methyl-d1)amino)tetrahydro-2H-pyran-2-yl)-2-(3-fluoro-6-methoxy-1,5-naphthyridin-4-yl)ethanol]	≤ 0.031	
[2H]C(N[C@@H]1CC[C@@H]([C@@H](O)Cc2c(F)cnc3ccc(OC)nc23)OC1)c1cc2c(cn1)OCCS2 (stereo partly drawn) [Example 19, (S)-1-((2S,5R)-5-(((2,3-dihydro-[1,4]oxathiino[2,3-c]pyridin-7-yl)methyl-d1)amino)tetrahydro-2H-pyran-2-yl)-2-(3-fluoro-6-methoxy-1,5-naphthyridin-4-yl)ethanol]	≤ 0.031	
[2H]C(c1c(F)cnc2ccc(OC)nc12)[C@H](O)[C@@H]1CC[C@@H](NCc2cc3c(cn2)OCCO3)CO1 (stereo partly drawn) [Example 20, (1S)-1-((2S,5R)-5-(((2,3-dihydro-[1,4]dioxino-[2,3-c]pyridin-7-yl)methyl)amino)tetrahydro-2H-pyran-2-yl)-2-(3-fluoro-6-methoxy-1,5-naphthyridin-4-yl)ethanol-2-d1]	≤ 0.031	
[2H]C(c1c(F)cnc2ccc(OC)nc12)[C@H](O)[C@@H]1CC[C@@H](NCc2cc3c(cn2)OCCS3)CO1 (stereo partly drawn) [Example 21, (S)-1-((2S,5R)-5-(((2,3-dihydro-[1,4]oxathiino[2,3-c]pyridin-7-yl)methyl)amino)tetrahydro-2H-pyran-2-yl)-2-(3-fluoro-6-methoxy-1,5-naphthyridin-4-yl)ethanol-2-d1]	≤ 0.031	
[2H]C(N[C@@H]1CC[C@@H]([C@@H](O)Cc2c(F)cnc3ccc(OC)nc23)OC1)c1cc2c(nn1)OCCS2 (stereo partly drawn) [Example 23, (S)-1-{(2S,5R)-5-[(6,7-dihydro-8-oxa-5-thia-1,2-diaza-naphthalen-3-ylmethyl-d1)-amino]-tetrahydro-pyran-2-yl}-2-(3-fluoro-6-methoxy-[1,5]naphthyridin-4-yl)-ethanol]	≤ 0.031	
[2H]C([2H])(N[C@@H]1CC[C@@H]([C@@H](O)Cc2c(F)cnc3ccc(OC)nc23)OC1)c1cc2c(cn1)OCCO2 [Example 24, (1S)-1-((2S,5R)-5-(((2,3-dihydro-[1,4]dioxino [2,3-c]pyridin-7-yl)methyl-d2)amino)tetrahydro-2H-pyran-2-yl)-2-(3-fluoro-6-methoxy-1,5-naphthyridin-4-yl)ethanol]	≤ 0.031	
COc1ccc2ncc(F)c(CCC3CCC(NCc4cc5c(cn4)OCCO5)CO3)c2n1 (stereo not drawn) [Reference Example No. 1, reference compound]		MIC (S. aureus A798; [1]): ≤ 0.031 µg/mL; inhibition at 4 min, 10 µM (hERG K+ channel): 77%
(1S)-1-((2S,5R)-5-(((2,3-dihydro-[1,4]dioxino-2,2,3,3-d4-[2,3-c]pyridin-7-yl)methyl)amino)tetrahydro-2H-pyran-2-yl)-2-(3-fluoro-6-methoxy-1,5-naphthyridin-4-yl)ethanol [Example 17]		MIC for S. aureus A798 (S. aureus A798; microdilution): ≦0.031 mg/l
(S)-((1S,5R)-5-(((2,3-dihydro-[1,4]oxathiino[2,3-c]pyridin-7-yl)methyl)amino)tetrahydro-2H-pyran-2-yl)-2-(3-fluoro-6-methoxy-1,5-naphthyridin-4-yl)ethanol-1-d1 [Example 22]		MIC for S. aureus A798 (S. aureus A798; microdilution): ≦0.031 mg/l
